Entries after “also recorded” stand apart in the source; their conditions may differ.
Legend:
LIN28 = assay: Immunoblot of LIN28 protein in HCT116 cells; assay type: cell-based, human
Protocol: (§1) HCT116 cells were grown in DMEM media supplemented with 10% fetal bovine serum and cultured at 37° C. For reverse transcription, total RNA was extracted using mirVana RNA isolation kit and reverse transcription performed using Taqman Small RNA Assays with predesigned primer specific to mature let-7 (Applied Biosystems). […] Western blots were conducted using anti-HMGA2 (Cell Signaling), LIN28 (abcam), anti-V5 (Invitrogen), eIF5A1 (Epitomics), and Actin (Sigma). […] Pre-designed Silencer Select siRNAs (Invitrogen) were obtained to specifically knockdown eIFSA isoforms. […] All bars show mean±s.d and statistical analysis was performed by using Student's t-test (*P<0.05; **P<0.01, ***P<0.001).
(§2) Immunoblot Analysis and Quantification of Western Blot Results.
(§3) Protein concentrations were determined using BCA assay (Pierce). […] Membranes were washed three times for 10 min and subsequently secondary antibodies were incubated with anti-mouse and anti-rabbit horseradish peroxidase conjugated antibodies (Santa Cruz Biotechnologies). Proteins were visualized by chemoluminescence using Amersham Plus ECL reagent (GE Healthcare). Bands were quantified via Western blot analysis by applying ImageJ software analysis. […] Briefly, areas under the curves were assessed for each specific band and comparisons were calculated by setting corresponding control values as 100% and each condition corrected by actin.
(§4) The LNA probes were purchased from Exiqon and synthesized using a phosphorothioate backbone.

HCT116 cells = assay: Cellular proliferation and viability (Vi-Cell counter, trypan blue exclusion); assay type: cell-based, human
Protocol: Cellular Proliferation. […] At each time point, cells were trypsinized with 500 μL of trypsin and resuspended with 1.5 mL DMEM supplemented with FBS. One milliliter of the resuspension was then loaded and analyzed using a Beckman-Coulter Vi-Cell Counter. Cellular viability was measured through the trypan blue exclusion assay.

hsa-let-7i = assay: Real-time quantitative RT-PCR of mature let-7i; assay type: cell-based, human
Protocol: as §1
RNA Isolation and Real-Time Quantitative RT-PCR.
Total RNA was extracted from cells using the miRVana RNA isolation kit (Ambion) and measured using Thermo Scientific NanoDrop 2000. miRNA levels were measured using an Applied Biosystems 7500 HT PCR instrument with Taqman microRNA assay kits. Controlled reactions were confirmed by excluding reverse transcriptase to confirm amplification from cDNA. Results were analyzed using comparative Ct method between untreated and treated cells. Statistical analysis was performed using two tailed Student's t-tests.

colon cancer cells = assay: Measurements of intracellular polyamine content (HPLC); assay type: cell-based, human
Description: Measurements of Intracellular Polyamine Content.
Cells were homogenized in 0.2 N HClO4. Acid-soluble and acid insoluble fractions were used to determine intracellular polyamines and protein content, respectively.
It was hypothesized that the polyamines, acting independently or via eIFSA, might affect levels of non-coding RNAs.

Hmga2 3′ UTR = assay: Hmga2 3' UTR luciferase reporter assay; assay type: cell-based
Protocol: Luciferase Reporter Assays.
Hmga2 3′ UTR reporter plasmids were obtained from Addgene (Plasmid 14785) and have been characterized in previous studies (Mayr et al., 2007). A mutated Hmga2 reporter plasmid with disrupted let-7 complementary sites was also obtained (Addgene plasmid 14792). HCT116 cells were transfected in 6-well plates with 1.5 μg firefly luciferase and 1.5 μg Hmga2 Renilla luciferase reporter plasmids. For functional analysis, 25 nM LNA directed against the let-7 family were transfected with appropriate plasmids. Firefly and renilla luciferase were measured 48 h after transfection using a Dual Luciferase Assay (Promega). Results were then normalized to firefly luciferase. Results are mean±SD.

tumor putrescine levels = details: rat-tumor model, DFMO infusion; cited from earlier work
[1] = system: tumors harboring Ki-ras mutations; details: AOM-treated rats; reduced from 90%; cited from earlier work
HMGA2 = assay: Immunoblot of HMGA2 protein in HCT116 cells; assay type: cell-based, human
Protocol: as §1, §2, §3, §4

[2] = system: colorectal cancer cells (HCT116); assay: Non-coding RNA microarray of DFMO treated vs untreated cells; assay type: cell-based, human; details: 96 h
Protocol: HCT116 cells were grown in DMEM media supplemented with 10% fetal bovine serum and cultured at 37° C. For reverse transcription, total RNA was extracted using mirVana RNA isolation kit and reverse transcription performed using Taqman Small RNA Assays with predesigned primer specific to mature let-7 (Applied Biosystems). […] Western blots were conducted using anti-HMGA2 (Cell Signaling), LIN28 (abcam), anti-V5 (Invitrogen), eIF5A1 (Epitomics), and Actin (Sigma). Locked Nucleic Acid (LNA) anti-sense oligos were purchased from Exiqon and directed against seed region of let-7 as described previously (Obad et al., 2011). Pre-designed Silencer Select siRNAs (Invitrogen) were obtained to specifically knockdown eIFSA isoforms. All transfections were conducted using Lipofectamine 2000 as described by manufacturer for up to 48 h. All bars show mean±s.d and statistical analysis was performed by using Student's t-test (*P<0.05; **P<0.01, ***P<0.001).
Non-Coding RNA Microarray.
Samples for miRNA profiling studies were processed by Asuragen Services (Austin, Tex.), according to the company's standard operating procedures. Following incoming sample quality control (QC) assessment, the 3′ ends of RNA molecules in total RNA samples were labeled with biotin according to the company's standard protocol. Labeled RNA (100 ng total RNA per sample) was purified and hybridized to Affymetrix GeneChip® miRNA Arrays (Affymetrix, Santa Clara, Calif.). Hybridization, washing, staining, imaging, and signal extraction were performed according to Affymetrix-recommended procedures. Arrays were scanned on an Affymetrix GeneChip® Scanner 3000 7G.
Signal Processing. The signal processing implemented for the Affymetrix miRChip is a multi-step process involving probe specific signal detection calls, background estimate and correction. For each probe, a global robust multichip average (RMA) background correction is performed with Median Polish summarization. Arrays within a specific analysis experiment are normalized together using Quantile normalization. Detection calls are based on a Wilcoxon rank-sum test of the miRNA probe signal compared to the distribution of signals from GC-content matched anti-genomic probes. The raw gene expression data (.cel files) were converted to expression values using the miRNAQCTool, an open-source package available through Affymetrix. […]. RMA selection was used as a normalization method. Permutation P-values were then calculated for the t-test comparison between the DFMO treated and untreated placebo plates. These P-values were then ranked and a candidate gene list was compiled, using false discovery rate (FDR), adjusted P-value cut-offs obtained by the linear step-up method described by Benjamini and Hochberg (1995).
Next, the mechanism by which polyamines modulate oncogenesis and the effects of polyamine depletion on non-coding RNA levels was investigated by using a non-coding RNA microarray platform containing 15,644 probes, which included 1105 human mature miRNAs. MicroRNAs (miRNAs) are small endogenous RNA species known to modulate cellular signaling predominantly by binding the 3′ untranslated region (UTR) of RNA species. Binding of miRNAs to its cognate target generally results in mRNA destabilization or translational repression (Filipowicz et al., 2008). As a result of the abilities of miRNAs to modulate signaling networks involved in both development and neoplastic diseases, miRNAs serve as attractive targets for disease intervention.

[3] = in vivo; cited from earlier work
prostoglandin E2 (PGE2) = details: 300 mg/day, one month; cited from earlier work
[4] = cited from earlier work
[5] = cited from earlier work; remark: listed apart in the source

Question: Which LIN28 protein levels (LIN28; HCT116 cells, 5 mM DFMO, 72 h (FIG. 2A)) does the source give for `NCCCC(N)(C(=O)O)C(F)F` (racemic) [DFMO, 2-(difluoromethyl)-dl-ornithine] here?
Answer: lowered levels of LIN28

Question: What about the cellular viability levels (HCT116 cells; DFMO treatment, trypan blue exclusion) of the same molecule?
Answer: not altered

Question: What about the cellular proliferation (HCT116 cells; HCT116 cells, 5 mM DFMO (FIG. 1B)) of the same molecule?
Answer: reduce cellular proliferation

Question: What about the “expression of mature let-7i” value (hsa-let-7i; HCT116 cells treated with DFMO, maximal at 96 h (FIG. 1C)) of the same molecule?
Answer: Increased expression

Question: And the intracellular polyamine pools (colon cancer cells; colon cancer cells, 96 h of DFMO treatment (FIG. 1A))?
Answer: depletion of putrescine and spermidine

Question: And the HMGA2 luciferase activity (Hmga2 3′ UTR; DFMO-treated mock cells compared to mock-untreated cells (FIG. 2B))?
Answer: a reduction in HMGA2 luciferase was observed

Question: And the “decrease in tumor putrescine levels” value (tumor putrescine levels)?
Answer: 90%

Question: What about the “number of tumors harboring Ki-ras mutations” value [1] of the same molecule?
Answer: 36%

Question: What about the HMGA2 protein levels (HMGA2; HCT116 cells, 5 mM DFMO, 72 h (FIG. 2A, 2C)) of the same molecule?
Answer: robust HMGA2 depletion; also recorded: lower HMGA2 levels

Question: What about the “Mean Expression Level Treatment, probe U8_st” value ([2]; probe U8_st) of the same molecule?
Answer: 8.90

Question: What about the “Mean Expression Level Treatment, probe U8_x_st” value ([2]; probe U8_x_st) of the same molecule?
Answer: 8.86

Question: What about the “Mean Expression Level Treatment, probe U13_st” value ([2]; probe U13_st) of the same molecule?
Answer: 9.81

Question: And the “Mean Expression Level Treatment, probe U50B_st” value ([2]; probe U50B_st)?
Answer: 10.72

Question: What about the “Mean Expression Level Treatment, probe U50B_x_st” value ([2]; probe U50B_x_st) of the same molecule?
Answer: 9.86

Question: And the “Mean Expression Level Treatment, probe hsa-let-7i_st” value ([2]; probe hsa-let-7i_st)?
Answer: 10.74

Question: And the “Mean Expression Level Treatment, probe hsa-miR-22_st” value ([2]; probe hsa-miR-22_st)?
Answer: 10.38

Question: What about the “Mean Expression Level Treatment, probe hsa-miR-193b_st” value ([2]; probe hsa-miR-193b_st) of the same molecule?
Answer: 8.79

Question: And the “Mean Expression Level Treatment, probe hsa-miR-200a-star_st” value ([2]; probe hsa-miR-200a-star_st)?
Answer: 4.89

Question: What about the “Mean Expression Level Treatment, probe hsa-miR-221_st” value ([2]; probe hsa-miR-221_st) of the same molecule?
Answer: 12.50

Question: And the “Mean Expression Level Treatment, probe hsa-miR-494_st” value ([2]; probe hsa-miR-494_st)?
Answer: 12.64

Question: And the “Mean Expression Level Treatment, probe hsa-miR-517a_st” value ([2]; probe hsa-miR-517a_st)?
Answer: 1.47

Question: And the “Mean Expression Level Treatment, probe hsa-miR-720_st” value ([2]; probe hsa-miR-720_st)?
Answer: 14.63

Question: And the “Mean Expression Level Treatment, probe hsa-miR-886-3p_st” value ([2]; probe hsa-miR-886-3p_st)?
Answer: 11.26

Question: For `Cc1ccc(-c2cc(C(F)(F)F)nn2-c2ccc(S(N)(=O)=O)cc2)cc1` [celecoxib, 4-[5-(4-Methylphenyl)-3-(trifluoromethyl)pyrazol-1-yl]benzenesulfonamide], which “increase in rates of heart and blood vessel disease” value [3] is on record?
Answer: 30%

Question: And the “risk of gastrointestinal side effects” value [3]?
Answer: greater than 80%

Question: Which “prostoglandin E2 (PGE2) levels in flat mucosa” value (prostoglandin E2 (PGE2)) does the source give for `CC(C)Cc1ccc(C(C)C(=O)O)cc1` (stereo not shown) [ibuprofen] here?
Answer: significant decrease

Question: For `CN1C(C(=O)Nc2ccccn2)=C(O)c2ccccc2S1(=O)=O` [piroxicam, 4-hydroxy-2-methyl-N-2-pyridyl-2H-1,2-benzothiazine-3-carboxamide 1,1-dioxide], which “number of tumors harboring Ki-ras mutations” value [1] is on record?
Answer: 25%

Question: For `NCCCCN` [putrescine], which “LIN28 protein levels in non-drug treated cells” value (LIN28; putrescine supplementation alone (FIG. 2A)) is on record?
Answer: did not alter

Question: And the “LIN28 protein levels in DFMO treated cells” value (LIN28; putrescine supplementation in DFMO treated cells (FIG. 2A))?
Answer: LIN28 levels comparable to vehicle control; also recorded: rescued

Question: What about the “cellular proliferation of DFMO-treated cells” value (HCT116 cells; HCT116 cells, 50 μM putrescine with 5 mM DFMO (FIG. 1B)) of the same molecule?
Answer: proliferation rates similar to control levels

Question: What about the “let-7i levels in DFMO treated cells” value (hsa-let-7i; HCT116, putrescine after DFMO administration (FIG. 1D)) of the same molecule?
Answer: rescued

Question: And the “let-7i levels in cultures not treated with drug” value (hsa-let-7i; HCT116, putrescine alone (FIG. 1D))?
Answer: no observable effect

Question: And the “intracellular polyamine levels in DFMO-treated cells” value (colon cancer cells; exogenous putrescine supplementation of DFMO-treated cells (FIG. 1A))?
Answer: restore intracellular polyamine levels

Question: With `CC1=C(CC(=O)O)c2cc(F)ccc2/C1=C\c1ccc([S+](C)[O-])cc1` (stereo not shown) [sulindac, (Z)-5-fluoro-2-methyl-1-((4 (methylsulfinyl)phenyl)methylene) 1H-indene-3-acetic acid] as the molecule, how does the “patients with mild gastrointestinal effects” value ([4]; abdominal pain and nausea most frequent) read?
Answer: ~20%

Question: What about the “patients with skin rash and pruritus” value ([4]; human, in vivo) of the same molecule?
Answer: 5%

Question: What about the “time to peak plasma levels, with food” value ([5]; administered with food) of the same molecule?
Answer: 3 to 4 h

Question: And the “fraction of the drug absorbed” value ([5]; after oral administration)?
Answer: about 90%

Question: And the “time to peak plasma levels, fasting” value ([5]; fasting patients)?
Answer: about 2 h

Question: For “anti-let-7 LNA: locked nucleic acid antisense oligo, phosphorothioate backbone, against let-7 seed region: ACTACCTC (SEQ ID NO: 1) (all phosphorothioate, sugars by position and methylation of C not given here; LNA oligo)”, which LIN28 expression (LIN28; 25 nM anti-let-7 LNA, HCT116 cells (FIG. 3C)) is on record?
Answer: little effect

Question: And the “wild-type Hmga2 3′ UTR luciferase activity” value (Hmga2 3′ UTR; 25 nM LNA, both DFMO treated and untreated HCT116 cells (FIG. 2B))?
Answer: enhanced luciferase activity

Question: And the “mutated 3′ UTR Hmga2 luciferase activity” value (Hmga2 3′ UTR; 25 nM LNA, irrespective of polyamine levels (FIG. 2B))?
Answer: no observable effect

Question: What about the “HMGA2 protein in DFMO-treated cells” value (HMGA2; LNA transfected DFMO-treated HCT116 cells (FIG. 2C)) of the same molecule?
Answer: rescued

Question: And the “HMGA2 protein levels, cells without DFMO” value (HMGA2; LNA transfected mock-treated HCT116 cells (FIG. 2C, 3C), listed as LNAs targeting let-7)?
Answer: increase in HMGA2 protein levels; also recorded: increased

Source: patent publication US10151756B2, “Predictive markers for polyamine inhibitor cancer therapies” (ARIZONA BOARD OF REGENTS ON BEHALF OF UNIVERSITY OF ARIZONA, priority 2012, dated 2018)
